Results: patent US8772323B2, “Benzoxazole- and tetrahydrobenzoxazole-substituted pyridazinones as GPR119 agonists” (Boehringer Ingelheim International GmbH, priority 2010, dated 2014)

What follows are molecules tested against human GPR119 (Homo sapiens (Human), UniProt Q8TDV5) (assay: AlphaScreen cAMP assay in Min-6/hGPR119 cells (GPR119 activation, intracellular cAMP)). Details: MIN6 cells stably transfected with human GPR119; 45 minutes' incubation at RT; AlphaScreen cAMP Assay Kit.
Format: cell-based
How it was run: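 cAMP quantified by AlphaScreen after 45 min room-temperature compound exposure in HEPES/bicarbonate buffer, pH 7.4, containing 0.5 mM IBMX, 0.1% BSA and 1% DMSO final. Cells were Min-6 stably transfected with human GPR119, seeded 24 h beforehand.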

Sequence of human GPR119 (Q8TDV5 whole entry): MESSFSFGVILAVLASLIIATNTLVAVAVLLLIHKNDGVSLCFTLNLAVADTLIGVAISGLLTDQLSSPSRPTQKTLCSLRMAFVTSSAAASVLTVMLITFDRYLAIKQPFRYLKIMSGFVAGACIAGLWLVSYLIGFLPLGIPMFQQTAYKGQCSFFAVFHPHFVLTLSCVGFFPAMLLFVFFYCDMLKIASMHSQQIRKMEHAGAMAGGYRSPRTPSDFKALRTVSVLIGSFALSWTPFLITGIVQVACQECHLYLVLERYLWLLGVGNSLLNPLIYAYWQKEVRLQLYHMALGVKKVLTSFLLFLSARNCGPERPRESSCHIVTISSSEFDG

Row | Structure (SMILES) | EC50 [nM]
1 | CCC1CC(=O)NN=C1c1ccc2nc(-c3ccc(C(C)C)cc3)oc2c1 (stereo not drawn) [Example 175, 5-ethyl-6-[2-(4-isopropyl-phenyl)-benzoxazol-6-yl]-4,5-dihydro-2H-pyridazin-3-one] | 462
2 | CC[C@@H]1CC(=O)NN=C1c1ccc2nc(-c3ccc(N(C)C)cc3)oc2c1 [Example 191, (5R)-6-{2-[4-(dimethylamino)phenyl]-1,3-benzoxazol-6-yl}-5-ethyl-2,3,4,5-tetrahydropyridazin-3-one] | 41
3 | CC[C@H]1CC(=O)NN=C1c1ccc2nc(-c3ccc(OC4CCOCC4)cc3)oc2c1 [Example 194, (S)-5-ethyl-6-{2-[4-(tetrahydro-pyran-4-yloxy)-phenyl]-benzoxazol-6-yl}-4,5-dihydro-2H-pyridazin-3-one] | 333
4 | CC[C@@H]1CC(=O)NN=C1c1ccc2nc(-c3ccc(OC4CCOCC4)cc3)oc2c1 [Example 195, (R)-5-ethyl-6-{2-[4-(tetrahydro-pyran-4-yloxy)-phenyl]-benzoxazol-6-yl}-4,5-dihydro-2H-pyridazin-3-one] | 51
5 | CCC1CC(=O)NN=C1c1ccc2nc(-c3cccc(OCCN4CCCC4)c3)oc2c1 (stereo not drawn) [Example 201, 5-ethyl-6-{2-[3-(2-pyrrolidin-1-yl-ethoxy)-phenyl]-benzoxazol-6-yl}-4.5-dihydro-2H-pyridazin-3-one] | 3030
6 | O=c1ccc(-c2ccc3nc(-c4ccccc4)oc3c2)n[nH]1 [Example 204, 6-(2-phenyl-1,3-benzoxazol-6-yl)-2,3-dihydropyridazin-3-one] | 414
7 | CC[C@@H]1OC(=O)NN=C1N1CCc2nc(-c3ccccc3)oc2C1 [Example 207, (S)-6-ethyl-5-(2-phenyl-6,7-dihydro-4H-oxazolo[5,4-c]pyridin-5-yl)-3,6-dihydro-[1.3.4]oxadiazin-2-one] | 578
8 | CC[C@H]1C(c2ccc3nc(-c4ccc(OC(C)C)cc4)oc3c2)=NNC(=O)[C@@H]1C [Example 208, (4R,5R)-5-ethyl-4-methyl-6-{2-[4-(propan-2-yloxy)phenyl]-1,3-benzoxazol-6-yl}-2,3,4,5-tetrahydropyridazin-3-one] | 88
9 | CCC1CC(=O)NN=C1c1ccc2nc(-c3ccc(OC4CCCCC4O)cc3)oc2c1 (stereo not drawn) [Example 212, 5-ethyl-6-(2-{4-[(2-hydroxycyclohexyl)oxy]phenyl}-1,3-benzoxazol-6-yl)-2,3,4,5-tetrahydropyridazin-3-one] | 108
10 | C=CCOc1ccc(-c2nc3ccc(C4=NNC(=O)CC4CC)cc3o2)cc1 (stereo not drawn) [Example 213, 6-[2-(4-allyloxy-phenyl)-benzoxazol-6-yl]-5-ethyl-4,5-dihydro-2H-pyridazin-3-one] | 241
11 | CCC1CC(=O)NN=C1c1ccc2nc(-c3ccc(OCCOC)cc3)oc2c1 (stereo not drawn) [Example 214, 5-ethyl-6-{2-[4-(2-methoxy-ethoxy)-phenyl]-benzoxazol-6-yl}-4,5-dihydro-2H-pyridazin-3-one] | 122
12 | CCC1CC(=O)NN=C1c1ccc2nc(-c3ccc(OCCN(CC)C(C)C)cc3)oc2c1 (stereo not drawn) [Example 215, 5-ethyl-6-(2-{4-[2-(ethyl-isopropyl-amino)-ethoxy]-phenyl}-benzoxazol-6-yl)-4,5-dihydro-2H-pyridazin-3-one] | 106
13 | CCC1CC(=O)NN=C1c1ccc2nc(-c3cccc(OCCN4CC(C)OC(C)C4)c3)oc2c1 (stereo not drawn) [Example 216, 6-(2-{3-[2-(2,6-dimethyl-morpholin-4-yl)-ethoxy]-phenyl}-benzoxazol-6-yl)-5-ethyl-4,5-dihydro-2H-pyridazin-3-one] | 639
14 | CCC1CC(=O)NN=C1c1ccc2nc(-c3cccc(OCCN(C)C(C)C)c3)oc2c1 (stereo not drawn) [Example 217] | 2410
15 | CCC1CC(=O)NN=C1c1ccc2nc(-c3ccc(OCCN4CC(C)OC(C)C4)cc3)oc2c1 (stereo not drawn) [Example 220, 6-(2-{4-[2-(2,6-dimethyl-morpholin-4-yl)-ethoxy]-phenyl}-benzoxazol-6-yl)-5-ethyl-4,5-dihydro-2H-pyridazin-3-one] | 84
16 | CCC1CC(=O)NN=C1c1ccc2nc(-c3ccc(OC(C)CN4CCOCC4)cc3)oc2c1 (stereo not drawn) [Example 221, 5-ethyl-6-{2-[4-(1-methyl-2-morpholin-4-yl-ethoxy)-phenyl]-benzoxazol-6-yl}-4,5-dihydro-2H-pyridazin-3-one] | 204
17 | CCC1CC(=O)NN=C1c1ccc2nc(-c3ccc(OCCN(CC)CC)cc3)oc2c1 (stereo not drawn) [Example 222, 6-{2-[4-(2-diethylamino-ethoxy)-phenyl]-benzoxazol-6-yl}-5-ethyl-4,5-dihydro-2H-pyridazin-3-one] | 299
18 | CCC[C@@H]1C(=O)NN=C(c2ccc3nc(-c4ccc(OCCN5C[C@@H](C)O[C@@H](C)C5)cc4)oc3c2)[C@H]1C [Example 223, Trans-6-(2-{4-[2-(2S,6R-dimethyl-morphoin-4-yl)-ethoxy]-phenyl}-benzoxazol-6-yl)-5-methyl-4-propyl-4,5-dihydro-2H-pyridazin-3-one] | 46

The next lines start with the values.

Row | EC50 [nM] | Structure (SMILES)
19 | 82 | CCC1CC(=O)NN=C1c1ccc2nc(-c3ccc(OC4CCCC4)cc3)oc2c1 (stereo not drawn) [Example 176, 6-[2-(4-cyclopentyloxy-phenyl)-benzoxazol-6-yl]-5-ethyl-4,5-dihydro-2H-pyridazin-3-one]
20 | 134 | CCC1CC(=O)NN=C1c1ccc2nc(-c3ccc(N4CCOCC4)cc3)oc2c1 (stereo not drawn) [Example 177, 5-ethyl-6-[2-(4-morpholin-4-yl-phenyl)-benzoxazol-6-yl]-4,5-dihydro-2H-pyridazin-3-one]
21 | 290 | CCC1CC(=O)NN=C1c1ccc2nc(-c3ccc(C(C)OC)cc3)oc2c1 (stereo not drawn) [Example 180, 5-ethyl-6-{2-[4-(1-methoxy-ethyl)-phenyl]-benzoxazol-6-yl}-4,5-dihydro-2H-pyridazin-3-one]
22 | 156 | CCC1CC(=O)NN=C1c1ccc2nc(-c3ccc(OC4CCOC4)cc3)oc2c1 (stereo not drawn) [Example 181, 5-ethyl-6-{2-[4-(tetrahydro-furan-3-yloxy)-phenyl]-benzoxazol-6-yl}-4,5-dihydro-2H-pyridazin-3-one]
23 | 83 | CCC[C@H]1C(=O)NN=C(c2ccc3nc(-c4ccco4)oc3c2)[C@@H]1C [Example 188, trans-6-(2-uran-2-yl-benzoxazol-6-yl)-5-methyl-4-propyl-4,5-dihydro-2H-pyridazin-3-one]
24 | 79 | CC[C@@H]1CC(=O)NN=C1c1ccc2nc(-c3ccc(OC)cc3)oc2c1 [Example 190, (5R)-5-ethyl-6-[2-(4-methoxyphenyl)-1,3-benzoxazol-6-yl]-2,3,4,5-tetrahydropyridazin-3-one]
25 | 6060 | CC[C@H]1CC(=O)NN=C1c1ccc2nc(-c3ccc(OC(C)C)cc3)oc2c1 [Example 192, (S)-5-ethyl-6-[2-(4-isopropoxy-phenyl)-benzoxazol-6-yl]-4,5-dihydro-2H-pyridazin-3-one]
26 | 30 | CC[C@@H]1CC(=O)NN=C1c1ccc2nc(-c3ccc(OC(C)C)cc3)oc2c1 [Example 193, (R)-5-ethyl-6-[2-(4-isopropoxy-phenyl)-benzoxazol-6-yl]-4,5-dihydro-2H-pyridazin-3-one]
27 | 39 | CCC[C@H]1C(=O)NN=C(c2ccc3nc(-c4ccccc4)oc3c2)[C@@H]1C [Example 196, (4R,5R)-5-methyl-6-(2-phenyl-1,3-benzoxazol-6-yl)-4-propyl-2,3,4,5-tetrahydropyridazin-3-one]
28 | 133 | CC[C@@H]1CC(=O)NN=C1N1CCc2nc(-c3ccccc3)oc2C1 [Example 202, (5R)-5-ethyl-6-{2-phenyl-4H,5H,6H,7H-pyrido[4.3-d][1.3]oxazol-5-yl}-2,3,4,5-tetrahydropyridazin-3-one]
29 | 962 | CCC[C@@H]1C(=O)NN=C(c2ccc3nc(-c4ccc(O)cc4)oc3c2)[C@H]1C [Example 203]
30 | 50 | CCC1OC(=O)NN=C1N1CCc2nc(-c3ccccc3)oc2C1 (stereo not drawn) [Example 205, 6-ethyl-5-(2-phenyl-6,7-dihydro-4H-oxazolo[5,4-c]pyridin-5-yl)-3,6-dihydro-[1,3,4]oxadiazin-2-one]
31 | 27 | CC[C@H]1OC(=O)NN=C1N1CCc2nc(-c3ccccc3)oc2C1 [Example 206, (R)-6-ethyl-5-(2-phenyl-6,7-dihydro-4H-oxazolo[5,4-c]pyridin-5-yl)-3,6-dihydro-[1.3.4]oxadiazin-2-one]
32 | 311 | CCC1CC(=O)NN=C1c1ccc2nc(-c3ccc(OCC(C)N4CCCC4)cc3)oc2c1 (stereo not drawn) [Example 209, 5-ethyl-6-{2-[4-(2-pyrrolidin-1-yl-propoxy)-phenyl]-benzoxazol-6-yl}-4,5-dihydro-2H-pyridazin-3-one]
33 | 590 | CCC1CC(=O)NN=C1c1ccc2nc(-c3ccc(OC(C)CN4CCCC4)cc3)oc2c1 (stereo not drawn) [Example 210, 5-ethyl-6-[2-(4-{[1-(pyrrolidin-1-yl)propan-2-yl]oxy}phenyl)-1,3-benzoxazol-6-yl]-2,3,4,5-tetrahydropyridazin-3-one]
34 | 395 | CCC1CC(=O)NN=C1c1ccc2nc(-c3ccc(OCC(C)O)cc3)oc2c1 (stereo not drawn) [Example 211, 5-ethyl-6-{2-[4-(2-hydroxy-propoxy)-phenyl]-benzoxazol-6-yl}-4,5-dihydro-2H-pyridazin-3-one]
35 | 840 | CCC1CC(=O)NN=C1c1ccc2nc(-c3cccc(OCCN(CC)C(C)C)c3)oc2c1 (stereo not drawn) [Example 218]
36 | 438 | CCC1CC(=O)NN=C1c1ccc2nc(-c3ccc(OCCN(C)C(C)C)cc3)oc2c1 (stereo not drawn) [Example 219, 5-ethyl-6-(2-{4-[2-(isopropyl-methyl-amino)-ethoxy]-phenyl}-benzoxazol-6-yl)-4,5-dihydro-2H-pyridazin-3-one]
37 | 47 | CCC1CC(=O)NN=C1c1ccc2nc(-c3ccc(OC[C@@H]4CCCN4C(=O)OC(C)(C)C)cc3)oc2c1 (stereo partly drawn) [Example 226]
38 | 52 | CCC1CC(=O)NN=C1c1ccc2nc(-c3ccc(OC[C@H]4CCCN4C(=O)OC(C)(C)C)cc3)oc2c1 (stereo partly drawn) [Example 227]
39 | 549 | CCC1CC(=O)NN=C1c1ccc2nc(-c3ccc(OC(C)(C)CN4CCCC4)cc3)oc2c1 (stereo not drawn) [Example 228, 6-{2-[4-(1,1-dimethyl-2-pyrrolidin-1-yl-ethoxy)-phenyl]-benzoxazol-6-yl}-5-ethyl-4,5-dihydro-2H-pyridazin-3-one]
